The text below walks through data of patent US12331041B2, “GLP-1 receptor agonists and uses thereof” (Pfizer Inc., priority 2018, dated 2025).

Structures can show the parent of a compound that is named as a salt.

In experiment [1] the target is T1, human GLP-1R (Homo sapiens, UniProt P43220, G168S).
T1 construct: expressed in transfected cells
The experiment in a line: CHO GLP-1R Clone H6 - Assay 1 (HTRF cAMP agonist assay). In kind it is cell-based. Conditions: for EC50: CHO Clone H6, high GLP-1R density, cAMP, geometric mean; for Emax: CHO Clone H6, relative to saturating full agonist GLP-1 7-36 (1 μM), arithmetic mean. As for the experimental part: GLP-1R-mediated agonist activity was determined with a cell-based functional assay utilizing an HTRF (Homogeneous Time-Resolved Fluorescence) cAMP detection kit (cAMP HI Range Assay Kit; CisBio cat #62AM6PEJ) that measures cAMP levels in the cell. The method is a competitive immunoassay between native cAMP produced by the cells and exogenous cAMP labeled with the dye d2, The tracer binding is visualized by a mAb anti-cAMP labeled with Cryptate. The specific signal (i.e. energy transfer) is inversely proportional to the concentration of cAMP in either standard or experimental sample.
The human GLP-1R coding sequence (NCBI Reference Sequence NP_002053.3, including naturally-occurring variant Gly168Ser) was subcloned into pcDNA3 (Invitrogen) and a cell line stably expressing the receptor was isolated (designated Clone H6).
A 1 mL sample of the cell suspension in growth media was counted on a Becton Dickinson ViCell to determine cell viability and cell count per mL. The remaining cell suspension was then adjusted with growth media to deliver 2000 viable cells per well using a Matrix Combi Multidrop reagent dispenser, and the cells were dispensed into a white 384 well tissue culture treated assay plate (Corning 3570). The assay plate was then incubated for 48 hours at 37° C. in a humidified environment in 5% carbon dioxide.
Varying concentrations of each compound to be tested (in DMSO) were diluted in assay buffer (HBSS with Calcium/Magnesium (Lonza/BioWhittaker cat #10-527F)/0.1% BSA (Sigma Aldrich cat #A7409-1L)/20 mM HEPES (Lonza/BioWhittaker cat #17-737E) containing 100 μM 3-isobutyl-1-methylxanthin (IBMX; Sigma cat #15879). The final DMSO concentration is 1%.
After 48 hours, the growth media was removed from the assay plate wells, and the cells were treated with 20 μL of the serially diluted compound in assay buffer for 30 minutes at 37° C. in a humidified environment in 5% carbon dioxide. Following the 30 minute incubation, 10 μL of labeled d2 cAMP and 10 μL of anti-cAMP antibody (both diluted 1:20 in cell lysis buffer; as described in the manufacturer's assay protocol) were added to each well of the assay plate. The plates were then incubated at room temperature and after 60 minutes, changes in the HTRF signal were read with an Envision 2104 multi-label plate reader using excitation of 330 nm and emissions of 615 and 665 nm. Raw data were converted to nM cAMP by interpolation from a cAMP standard curve (as described in the manufacturer's assay protocol) and the percent effect was determined relative to a saturating concentration of the full agonist GLP-17-36 (1 μM) included on each plate. EC50 determinations were made from agonist dose-response curves analyzed with a curve fitting program using a 4-parameter logistic dose response equation.
(In TR-FRET formats the signal depends on donor and acceptor labels being close together.)

Experiment [2] deals with T2, human GLP-1R (Homo sapiens, UniProt P43220, L260F).
T2 construct: expressed in transfected cells; host or cells: CHO Flp-In T-REx, clonal line C6 (pcDNA5-FRT-TO)
The experiment can be described thus: CHO GLP-1R Clone C6 - Assay 2 (HTRF cAMP agonist assay). Format: cell-based. To be noted: for EC50: CHO clone C6, low GLP-1R density, cAMP, geometric mean; for Emax: CHO clone C6, relative to saturating full agonist GLP-1 (1 μM), arithmetic mean. As for the experimental part: GLP-1R-mediated agonist activity was determined with a cell-based functional assay utilizing an HTRF (Homogeneous Time-Resolved Fluorescence) cAMP detection kit (cAMP HI Range Assay Kit; Cis Bio cat #62AM6PEJ) that measures cAMP levels in the cell. The method is a competitive immunoassay between native cAMP produced by the cells and exogenous cAMP labeled with the dye d2. The tracer binding is visualized by a mAb anti-cAMP labeled with Cryptate. The specific signal (i.e. energy transfer) is inversely proportional to the concentration of cAMP in either a standard or an experimental sample.
The human GLP-1R coding sequence (NCBI Reference Sequence NP_002053.3, including naturally-occurring variant Leu260Phe) was subcloned into pcDNA5-FRT-TO and a clonal CHO cell line stably expressing a low receptor density was isolated using the Flp-In™ T-Rex™ System, as described by the manufacturer (ThermoFisher).
A 1 mL sample of the cell suspension in growth media was counted on a Becton Dickinson ViCell to determine cell viability and cell count per mL. The remaining cell suspension was then adjusted with growth media to deliver 1600 viable cells per well using a Matrix Combi Multidrop reagent dispenser, and the cells were dispensed into a white 384 well tissue culture treated assay plate (Corning 3570). The assay plate was then incubated for 48 h at 37° C. in a humidified environment (95% O2, 5% CO2)
Varying concentrations of each compound to be tested (in DMSO) were diluted in assay buffer [HBSS with Calcium/Magnesium (Lonza/BioWhittaker cat #10-527F)/0.1% BSA (Sigma Aldrich cat #A7409-1L)/20 mM HEPES (Lonza/BioWhittaker cat #17-737E)] containing 100 μM 3-isobutyl-1-methylxanthin (IBMX; Sigma cat #15879). The final DMSO concentration in the compound/assay buffer mixture is 1%.
After 48 h, the growth media was removed from the assay plate wells, and the cells were treated with 20 μL of the serially diluted compound in assay buffer for 30 min at 37° C. in a humidified environment (95% O2, 5% CO2). Following the 30 min incubation, 10 μL of labeled d2 cAMP and 10 μL of anti-cAMP antibody (both diluted 1:20 in cell lysis buffer; as described in the manufacturer's assay protocol) were added to each well of the assay plate. The plates were then incubated at room temperature and after 60 minutes, changes in the HTRF signal were read with an Envision 2104 multi-label plate reader using excitation of 330 nm and emissions of 615 and 665 nm. Raw data were converted to nM cAMP by interpolation from a cAMP standard curve (as described in the manufacturer's assay protocol) and the percent effect was determined relative to a saturating concentration of the full agonist GLP-1 (1 μM) included on each plate. EC50 determinations were made from agonist dose response curves analyzed with a curve fitting program using a 4-parameter logistic dose response equation.

Usually EC50 stands for the concentration that produces a half-maximal response. Read a low EC50 as an effect from little substance. The Emax is the size of the effect at its maximum, as opposed to the concentration needed.

T1 sequence (P43220 24-463 G168S): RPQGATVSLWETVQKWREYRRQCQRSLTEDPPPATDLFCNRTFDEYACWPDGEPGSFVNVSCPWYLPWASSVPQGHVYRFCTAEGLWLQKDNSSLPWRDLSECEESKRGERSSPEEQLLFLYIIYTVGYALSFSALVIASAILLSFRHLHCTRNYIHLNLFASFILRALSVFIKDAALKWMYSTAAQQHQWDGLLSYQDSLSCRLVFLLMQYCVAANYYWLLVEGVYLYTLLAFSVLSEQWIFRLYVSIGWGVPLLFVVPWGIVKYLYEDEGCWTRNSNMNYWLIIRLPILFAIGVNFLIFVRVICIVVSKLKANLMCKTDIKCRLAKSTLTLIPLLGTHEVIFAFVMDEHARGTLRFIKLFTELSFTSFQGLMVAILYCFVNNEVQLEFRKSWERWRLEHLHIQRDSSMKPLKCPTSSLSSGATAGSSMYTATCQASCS
T2 sequence (P43220 24-463 L260F): as the sequence (P43220 24-463 G168S) above, with S145G, L237F counted along it

In the case of `O=C(O)c1ccc2nc(CC3CCC(c4cccc(OCc5ccc(Cl)cc5F)n4)CC3)n(C[C@@H]3CCO3)c2c1` (single isomer, unassigned; isomer 1) [Example 79], the EC50 is over 12000 nM on human GLP-1R [1] and over 20000 nM on human GLP-1R [2].
Turning to `O=C(O)c1ccc2nc(CC3CCC(c4cccc(OCc5ccc(Cl)cc5F)n4)CC3)n(C[C@@H]3CCO3)c2c1` (single isomer, unassigned; isomer 2) [Example 80], the EC50 on human GLP-1R [1] was found to be 12 nM; on human GLP-1R [2], 160 nM. The Emax turned out to be 98% on human GLP-1R [1] and 100% on human GLP-1R [2].
With `O=C(O)c1ccc2nc(CN3CCC(c4cccnc4OCc4ccc(Cl)cc4F)CC3)n(C[C@@H]3CCO3)c2c1` [Example 1, Ammonium 2-[(4-{2-[(4-chloro-2-fluorobenzyl)oxy]pyridin-3-yl}piperidin-1-yl)methyl]-1-[(2S)-oxetan-2-ylmethyl]-1H-benzimidazole-6-carboxylate], on human GLP-1R [1], the EC50 came out at 1 nM and the Emax was 84%. At human GLP-1R [2], this molecule came in with an EC50 of 20 nM and an Emax of 95%.
The matching figures for `O=C(O)c1ccc2nc(CN3CCC(c4cccnc4OCc4ccc(Cl)cc4F)CC3)n(Cc3ncco3)c2c1` [Example 2, 2-[(4-{2-[(4-chloro-2-fluorobenzyl)oxy]pyridin-3-yl}piperidin-1-yl)methyl]-1-(1,3-oxazol-2-ylmethyl)-1H-benzimidazole-6-carboxylic acid, trifluoroacetate salt]: 3.2 nM, 79%, 38 nM and 81%.
On the same counts, the results for `CCn1cncc1Cn1c(CN2CCC(c3cccnc3OCc3ccc(Cl)cc3F)CC2)nc2ccc(C(=O)O)cc21` [Example 3, 2-[(4-{2-[(4-chloro-2-fluorobenzyl)oxy]pyridin-3-yl}piperidin-1-yl)methyl]-1-[(1-ethyl-1H-imidazol-5-yl)methyl]-1H-benzimidazole-6-carboxylic acid, trifluoroacetate salt] are 0.58 nM, 79%, 9 nM and 88%.
On to `N#Cc1ccc(COc2ncccc2C2CCN(Cc3nc4ccc(C(=O)O)cc4n3Cc3ncco3)CC2)c(F)c1` [Example 4, 2-[(4-{2-[(4-cyano-2-fluorobenzyl)oxy]pyridin-3-yl}piperidin-1-yl)methyl]-1-(1,3-oxazol-2-ylmethyl)-1H-benzimidazole-6-carboxylic acid, trifluoroacetate salt], for which, on human GLP-1R [1], the EC50 is 3 nM and the Emax turned out to be 77%. On human GLP-1R [2], this molecule showed an EC50 of 40 nM and an Emax of 98%.
The matching figures for `O=C(O)c1ccc2nc(CN3CCC(c4cccnc4OCc4ccc(Cl)cc4F)CC3)n(Cc3cnco3)c2c1` [Example 6, 2-[(4-{2-[(4-chloro-2-fluorobenzyl)oxy]pyridin-3-yl}piperidin-1-yl)methyl]-1-(1,3-oxazol-5-ylmethyl)-1H-benzimidazole-6-carboxylic acid, trifluoroacetate salt]: 4.5 nM, 68%, 84 nM and 83%.
On the same counts, the results for `O=C(O)c1ccc2nc(CN3CCC(c4cccnc4OCc4ccc(Cl)cc4F)CC3)n(Cc3ncco3)c2n1` [Example 7, 2-[(4-{2-[(4-chloro-2-fluorobenzyl)oxy]pyridin-3-yl}piperidin-1-yl)methyl]-3-(1,3-oxazol-2-ylmethyl)-3H-imidazo[4,5-b]pyridine-5-carboxylic acid, trifluoroacetate salt] are 8.9 nM, 81%, 190 nM and 81%.
The matching figures for `O=C(O)c1ccc2nc(CN3CCC(c4cccnc4OCc4ccc(Cl)cc4F)CC3)n(C[C@H]3CCOC3)c2c1` [Example 8, 2-[(4-{2-[(4-chloro-2-fluorobenzyl)oxy]pyridin-3-yl}piperidin-1-yl)methyl]-1-[(3R)-tetrahydrofuran-3-ylmethyl]-1H-benzimidazole-6-carboxylic acid, trifluoroacetate salt]: 6 nM, 72%, 230 nM and 76%.
For the molecule `COCCn1c(CN2CCC(c3cccnc3OCc3ccc(C#N)cc3F)CC2)nc2ccc(C(=O)O)cc21` [Example 9, 2-[(4-{2-[(4-cyano-2-fluorobenzyl)oxy]pyridin-3-yl}piperidin-1-yl)methyl]-1-(2-methoxyethyl)-1H-benzimidazole-6-carboxylic acid, trifluoroacetate salt], at human GLP-1R [1], the EC50 worked out at 28 nM and the Emax was 77%. On human GLP-1R [2], this molecule displayed an EC50 of 700 nM and an Emax of 81%.
On the same counts, the results for `Cn1cncc1Cn1c(CN2CCC(c3cccnc3OCc3ccc(Cl)cc3F)CC2)nc2ccc(C(=O)O)cc21` [Example 11, 2-[(4-{2-[(4-chloro-2-fluorobenzyl)oxy]pyridin-3-yl}piperidin-1-yl)methyl]-1-[(1-methyl-1H-imidazol-5-yl)methyl]-1H-benzimidazole-6-carboxylic acid, trifluoroacetate salt] are 1.9 nM, 83%, 49 nM and 100%.
The matching figures for `O=C(O)c1ccc2nc(CN3CCC(c4cccnc4OCc4ccc(F)cc4F)CC3)n(C[C@@H]3CCO3)c2c1` [Example 12, ammonium 2-[(4-{2-[(2,4-difluorobenzyl)oxy]pyridin-3-yl}piperidin-1-yl)methyl]-1-[(2S)-oxetan-2-ylmethyl]-1H-benzimidazole-6-carboxylate]: 4.7 nM, 78%, 110 nM and 93%.
